Patent publication US9447055B1, “α-amino esters of hydroxypropylthiazolidine carboxamide derivative and salt form, crystal polymorph thereof” (Merck Serono S.A., priority 2016, dated 2016)
In brackets after ≈: the same amount, converted by molar mass. Entries after “also recorded” stand apart in the source; their conditions may differ.

Key:
[1] = target: human FP-R (Homo sapiens (Human), UniProt P43088); test: competitive radioligand binding, recombinant FP receptor expressed in HEK293-EBNA cells
Method: The potency of inhibition of compound I and compound II on prostaglandin F2α receptor was assessed by analyzing the affinity of these compounds for recombinant FP receptor expressed in HEK293-EBNA cells.

[2] = solubility in water and simulated intestinal media; type: physicochemical
[3] = system: spontaneous uterine contractions; test: spontaneous uterine activity in late-term anaesthetized pregnant rat; type: in vivo; settings: late-term pregnant rats; for reduction of spontaneous uterine contractions: i.v. or oral, maximal effect at 30 mg/kg i.v. and 60 mg/kg oral; for intravenous activity compared with atosiban: i.v.
Text: The tocolytic effects of compound I and compound II were investigated in a model of spontaneous uterine activity in late-term (19-21 days of gestation) anaesthetized pregnant rat (Kawarabayashi et al. Am. J. Obstet. Gynecol. 175:1348-1355 (1996) and Shinkai et al. J. Pharm. Pharmacol. 52:1417-1423 (2000)). Briefly, late-term pregnant female rats were anaesthetized with urethane. One pregnant uterine horn was exposed and a polyethylene catheter bearing on the tip a latex balloon filled with saline was inserted into the lumen. The catheter was connected to an amplifying/recording system via a pressure-transducer. […] For the i.v. administration the uterine contractile activity was quantified by calculating the AUC during the 10 min injection period. The percent variation of the AUC values relative to the spontaneous uterine response observed after each compound administration was calculated in comparison to the value recorded before the first dose-administration (basal value). The effect of compound I or compound II was evaluated by comparing pre- and post-treatment luminal uterine pressure values. For the oral administration the same computation procedure was applied at different time points after treatment. Statistical differences between treatment groups at each time-point were determined by using one-way ANOVA followed by Tukey test. Both compounds intravenously or orally administered were able to markedly reduce spontaneous uterine contractions by around 40-50% (maximal effect obtained at 30 mg/kg by i.v. route and 60 mg/kg by oral route).

[4] = in vivo conversion of compound I to compound II; settings: following gastrointestinal tract administration
Method: The invention is based on the discovery that compound I ((3S)-3-({[(2S)-3-(biphenyl-4-ylsulfonyl)-1,3-thiazolidin-2-yl]carbonyl}-amino)-3-(4-fluorophenyl)propyl L-valinate, represented by formula I, below) and salts thereof are converted in vivo to 3-([1,1′-biphenyl]-4-ylsulfonyl)-N-[1-(4-fluorophenyl)-3-hydroxypropyl]-1,3-thiazolidine-2-carboxamide (represented by formula II, below).
Compound II is a competitive and reversible prostaglandin F2α receptor antagonist (human FP2α receptor Ki=6 nM) that is under development for the management of pre-term labor by inhibition of premature uterine contractions.

[5] = system: Caco-2 cell monolayer; test: bidirectional permeability across Caco-2 cell monolayers; type: in vitro ADME, human; settings: for efflux: bi-directional
Method: (§1) Compound I was dissolved in HBSS buffer (1% DMSO final concentration) at the concentrations of 1.5, 3 and 6 μM. Each concentration/sampling time was run in duplicate well. The test was performed in a gradient pH: the apical compartment (mucosal) was at pH 6.5, the basolateral compartment (serosal) was at pH 7.4.
(§2) Apical to basolateral (A→B, mucosal to serosal) transport: 200 μL of each concentration of compound I was added to the apical compartment and 400 μL of HBSS was added to the basolateral compartment. The plates were incubated at 37° C. An aliquot of the basolateral compartment was sampled after 60 and 120 min (t=60 and t=120). An aliquot of the apical compartment was sampled at the starting time (t=0) and after 120 min. (t=120).
(§3) Basolateral to apical (B→A, serosal to mucosal) transport: 400 μL of each concentration of compound I was added to the basolateral compartment and 200 μL of HBSS was added to the apical compartment. The plates were incubated at 37° C. An aliquot of the apical compartment was sampled after 60 and 120 min (t=60 and t=120). An aliquot of the basolateral compartment was sampled at the starting time (t=0) and after 120 min. (t=120). All samples were analyzed by LC/MS monitoring both compound I and the appearance of compound II.
as §1, with “II” for “I”
as §2, with “II” for “I”
as §3, with “of compound II was added” for “of compound I was added”, “LC/MS monitoring compound II.” for “LC/MS monitoring both compound I and the appearance of compound II.”

[6] = target: PepT1 transporter (Homo sapiens (Human), UniProt P46059); test: mucosal-to-serosal Caco-2 transport after Gly-Sar pre-treatment; type: in vitro ADME; settings: 10 mM Gly-Sar pre-treatment; for compound I passage to receiving compartment after Gly-Sar pre-treatment: A→B
Method: The differentiated cells were pre-treated for 30 min. with 10 mM of Gly-Sar in order to block the active transporter PepT1.
as §1
Apical to basolateral (A→B, mucosal to serosal) transport: 200 μL of each concentration of compound I was added to the apical compartment and 400 μL of HBSS was added to the basolateral compartment. The plates were incubated at 37° C. An aliquot of the basolateral compartment was sampled after 60 and 120 min (t=60 and t=120). An aliquot of the apical compartment was sampled at the starting time (t=0) and after 120 min. (t=120). All samples were analyzed by LC/MS monitoring both compound I and the appearance of compound II.

[7] = stability in HBSS transport buffer; type: in vitro ADME; settings: 37° C., 60 and 120 minutes
Method: Stability of both compound I and compound II was assessed during the test. These compounds were dissolved in HBSS buffer (1% DMSO final concentration) at the concentrations of 1.5, 3 and 6 μM. An aliquot of each solution was sampled at time zero (t=0) to assess the starting concentrations of the compounds. The solutions were incubated at 37° C. for the duration of the transport experiment. An aliquot of each solution was sampled at the end of experiment (t=120) to assess the final concentrations of compound I and compound II. Samples were analyzed by LC-MS.

[8] = non-specific binding to cell-free transwells; type: in vitro ADME
Method: Non-specific binding and recovery was assessed across cell-free transwells.
Compound I was tested at 1.5, 3 and 6 μM in duplicate cell-free transwells. The test was performed in a pH gradient between the apical and the basolateral compartment. […] The following sampling times were performed: 60 and 120 min for the basolateral compartment (receiver) and 120 min for the apical compartment (donor). Samples obtained were analyzed by LC-MS, both compound I and compound II were monitored in order to assess percent of recovery.

[9] = moisture sorption/desorption and relative humidity stability of salts; type: physicochemical; settings: for hygroscopicity: moisture balance data, hydrochloride
Method: Moisture sorption/desorption (MB) data were collected on a VTI SGA-100 Vapor Sorption Analyzer. Sorption and desorption data were collected over a range of 5% to 95% relative humidity (RH) at 10% RH intervals under a nitrogen purge. Samples were not dried prior to analysis. Equilibrium criteria used for analysis were less than 0.0100% weight change in 5 minutes, with a maximum equilibration time of 3 hours if the weight criterion was not met. Data were not corrected for the initial moisture content of the samples. NaCl and PVP were used as calibration standards.

[10] = aqueous solubility of compound I salts; type: physicochemical; settings: water
[11] = system: other prostaglandin receptor subtypes; settings: FP over other subtypes
Method: (§4) Selectivity of compound II was tested against all eight prostaglandin receptor subtypes.

[12] = target: prostaglandin E receptor 2 (EP2) (Homo sapiens (Human), UniProt P43116); settings: FP over EP2
Method: as §4

[13] = target: human FP (Homo sapiens (Human), UniProt P43088); test: IP3 synthesis in FP-transfected HEK293-EBNA cells; type: cell-based
Method: The functional characterization of compound II on human FP was performed in transfected HEK293-EBNA cells.

[14] = system: panel of 50 receptors, channels and enzymes binding sites; settings: 1 μM
[15] = FaSSIF pH 6.5, read-out: Solubility in FaSSIF
[16] = FeSSIF pH 5.0, read-out: Solubility in FeSSIF
[17] = water, read-out: Solubility in water

Sequence of human FP-R (P43088 whole entry): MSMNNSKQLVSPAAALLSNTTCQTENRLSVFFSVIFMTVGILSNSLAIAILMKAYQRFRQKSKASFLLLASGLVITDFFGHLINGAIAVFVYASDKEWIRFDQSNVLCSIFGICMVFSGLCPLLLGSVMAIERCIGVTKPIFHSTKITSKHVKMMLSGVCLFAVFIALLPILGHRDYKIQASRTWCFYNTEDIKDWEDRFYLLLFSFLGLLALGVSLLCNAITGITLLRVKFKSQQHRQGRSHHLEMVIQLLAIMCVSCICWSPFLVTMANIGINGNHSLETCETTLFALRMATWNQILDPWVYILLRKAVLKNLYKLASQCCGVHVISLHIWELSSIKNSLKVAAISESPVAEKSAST
Sequence of human FP (P43088 whole entry): as above
Sequence of prostaglandin E receptor 2 (EP2) (P43116 whole entry): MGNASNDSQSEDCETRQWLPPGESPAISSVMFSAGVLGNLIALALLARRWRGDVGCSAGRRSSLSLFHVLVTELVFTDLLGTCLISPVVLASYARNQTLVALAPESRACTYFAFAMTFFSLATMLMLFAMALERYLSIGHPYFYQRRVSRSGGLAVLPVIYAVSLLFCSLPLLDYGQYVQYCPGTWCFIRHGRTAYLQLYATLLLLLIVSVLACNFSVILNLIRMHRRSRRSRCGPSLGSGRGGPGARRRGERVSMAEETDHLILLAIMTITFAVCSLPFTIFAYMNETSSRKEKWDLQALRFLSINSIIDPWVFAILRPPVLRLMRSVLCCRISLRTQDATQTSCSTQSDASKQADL

CC(C)[C@H](N)C(=O)OCC[C@H](NC(=O)[C@@H]1SCCN1S(=O)(=O)c1ccc(-c2ccccc2)cc1)c1ccc(F)cc1 [Compound I, (3S)-3-({[(2S)-3-(biphenyl-4-ylsulfonyl)-1,3-thiazolidin-2-yl]carbonyl}-amino)-3-(4-fluorophenyl)propyl L-valinate]
Ki [1]: 1 nM | solubility [2, 15]: 70 µg/mL (≈ 117 µM) | solubility [2, 16]: 90 µg/mL (≈ 150 µM) | solubility [2, 17]: 380 µg/mL (≈ 634 µM) | reduction of spontaneous uterine contractions [3]: 40-50% | intravenous activity compared with atosiban [3]: comparable or slightly higher than that of the tocolytic drug atosiban | conversion to compound II [4]: rapidly converted to compound II | compound I in basolateral (receiving) compartment, apical to basolateral ([5]; A→B, 60 and 120 minutes, 1.5, 3 and 6 μM): not detected | compound I in apical (receiving) compartment, basolateral to apical ([5]; B→A, 60 and 120 minutes): not detected | recovery of compound I in apical compartment at end of apical to basolateral experiment ([5]; apical compartment, 120 min): primarily recovered in the form of the de-esterified variant, compound II; also recorded: low recovery | passage through the Caco-2 cell monolayer ([5]; bi-directional permeability test): did not pass through the cell monolayer | PepT1 mediation of transport [6]: likely not mediated by PepT1 | compound I passage to receiving compartment after Gly-Sar pre-treatment [6]: not detected | compound I passage to receiving compartment after Gly-Sar pre-treatment ([6]; listed as compound I): no passage | stability in HBSS buffer [7]: stable | non-specific binding ([8]; cell-free transwells, 1.5, 3 and 6 μM): excluded | detection in basolateral compartment of cell-free transwell ([8]; cell-free transwells, any dose tested): not detected

CC(C)[C@H](N)C(=O)OCC[C@H](NC(=O)[C@@H]1SCCN1S(=O)(=O)c1ccc(-c2ccccc2)cc1)c1ccc(F)cc1.Cl [Compound III, (3S)-3-({[(2S)-3-(biphenyl-4-ylsulfonyl)-1,3-thiazolidin-2-yl]carbonyl}-amino)-3-(4-fluorophenyl)propyl L-valinate hydrochloride]
deliquescence ([9]; 2 days at approximately 95% RH): did not deliquesce | weight loss upon desorption ([9]; desorption after sorption to 95% RH): approximately 0.7% | weight gain on sorption ([9]; from 5 to 95% relative humidity): Approximately 0.9% | hygroscopicity [9]: low hygroscopicity | hygroscopicity ([9]; listed as chloride salt): non-hygroscopic | hygroscopicity ([9]; listed as hydrochloride salt): low hygroscopicity; also recorded: non-hygroscopic | solubility [10]: < 1000 µg/mL

O=C(N[C@@H](CCO)c1ccc(F)cc1)[C@@H]1SCCN1S(=O)(=O)c1ccc(-c2ccccc2)cc1 (stereo in doubt) [Compound II, 3-([1,1′-biphenyl]-4-ylsulfonyl)-N-[1-(4-fluorophenyl)-3-hydroxypropyl]-1,3-thiazolidine-2-carboxamide]
Ki [1]: 6 nM | solubility [2, 15]: 0.4 µg/mL (≈ 0.799 µM) | solubility [2, 16]: 10 µg/mL (≈ 20 µM) | solubility [2, 17]: 0.4 µg/mL (≈ 0.799 µM) | Selectivity against other prostaglandin receptors [11]: higher than 100 fold | Selectivity versus prostaglandin E receptor 2 (EP2) [12]: approximately 10 fold | IC50 ([13]; FP/HEK293-EBNA cells, read-out: inhibition of synthesis of IP3, IC50): 60 nM | agonist activity: synthesis of IP3 when added alone ([13]; tested up to 10 μM, added alone): did not induce any synthesis of IP3 | reduction of spontaneous uterine contractions [3]: 40-50% | intravenous activity compared with atosiban [3]: comparable or slightly higher than that of the tocolytic drug atosiban | passive passage through the Caco-2 monolayer [5]: good passive passage | passage apical to basolateral ([5]; A→B): good percentage of passage | permeability basolateral to apical ([5]; B→A): low rate of permeability | efflux [5]: No efflux was detected | efflux ([5]; listed as compound II): Evidence was not found that compound II might be a substrate for an efflux transporter | stability in HBSS buffer [7]: stable | Selectivity in panel of 50 receptors, channels and enzymes binding sites [14]: high selectivity for FP
